# Laboratory results: US11072598B2, “Somatostatin modulators and uses thereof” (CRINETICS PHARMACEUTICALS, INC., priority 2017, dated 2021)
# Molecular target: T1, human somatostatin receptor subtype 2 (Homo sapiens, UniProt P30874)
# T1 construct: expressed in transfected cells
# Experiment: cAMP functional assay for SSTR2 agonists
# Format: cell-based
# Conditions: inhibition of cAMP activities via human SST2 receptor (SSTR2), CHO-K1 cells; read-out: EC50
# Text: General overview: All five SSTR subtypes are Gi coupled G-protein coupled receptors (GPCRs) that lead to decreases in intracellular cyclic AMP (cAMP) when activated by an agonist. Therefore, measurement of intracellular cAMP levels can be used to assess whether compounds of the invention are agonists of SSTR subtypes (John Kelly, Troy Stevens, W. Joseph Thompson, and Roland Seifert, Current Protocols in Pharmacology, 2005, 2.2.1-2.2). One example of an intracellular cAMP assay is described below. cAMP assay protocol:
# Four days prior to the assay, 5,000 Chinese hamster ovary cells (CHO-K1, ATCC #CCL-61) stably expressing the human somatostatin receptor subtype 2 are plated in each well of a 96-well tissue culture-treated plate in Ham's F12 growth media (ThermoFisher #10-080-CM) supplemented with 10% donor bovine serum (Gemini Bio-Products #100-506), 100 U/mL penicillin; 100 ug/mL streptomycin; 2 mM L-glutamine (Gemini Bio-Products #400-110) and 0.2 mg/mL hygromycin B (GoldBio #31282-04-9). The cells are cultured at 37° C., 5% CO2 and 95% humidity. On the day of the assay, the media is aspirated and the cells are treated with 50 μL of 1.6 μM NKH477 (Sigma #N3290) plus various dilutions of compounds of the invention in assay buffer [1× Hank's Balanced Salt Solution (ThermoFisher #SH3058802), 0.5 mM HEPES pH 7.4, 0.1% bovine serum albumin, 0.2 mM 3-Isobutyl-1-methylxanthine (IBMX, VWR #200002-790)]. The cells are incubated for 20 minutes at 37° C. […] The cells are treated with 50 μL of lysis buffer (HRTF cAMP kit, Cisbio). The lysate is transferred to 384-well plates and cAMP detection and visualization antibodies are added and incubated for 1-24 hours at room temperature. The time-resolved fluorescent signal is read with a Tecan M1000Pro multiplate reader. The intracellular cAMP concentrations are calculated by regression to a standard curve and are plotted vs. the concentration of the compounds of the invention and the EC50 of the compounds are calculated using standard methods. All data manipluations are in GraphPad Prism v6.
# T1 sequence (P30874 whole entry): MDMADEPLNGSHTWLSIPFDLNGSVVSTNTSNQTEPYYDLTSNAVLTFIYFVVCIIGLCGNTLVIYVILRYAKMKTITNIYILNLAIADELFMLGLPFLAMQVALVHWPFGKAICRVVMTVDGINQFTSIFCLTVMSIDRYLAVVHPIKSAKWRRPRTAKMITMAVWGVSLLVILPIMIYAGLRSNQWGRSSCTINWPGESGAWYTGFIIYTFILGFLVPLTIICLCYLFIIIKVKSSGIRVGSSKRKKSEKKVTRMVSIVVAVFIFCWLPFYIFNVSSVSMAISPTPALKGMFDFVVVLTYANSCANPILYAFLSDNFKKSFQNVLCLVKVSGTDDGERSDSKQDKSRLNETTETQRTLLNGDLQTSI
row,Structure (SMILES),EC50 [nM]
1,"Cc1cc(Cl)cc(-c2cnc(N)c(C=NO)c2N2CCC(N)CC2)c1 [Compound 1-39, 4-(4-aminopiperidin-1-yl)-5-(3-chloro-5-methylphenyl)-3-[(hydroxyimino)methyl]pyridin-2-amine]",> 100
2,"CON=Cc1ccc2[nH]c(-c3c(N)ncc(-c4cc(C)cc(F)c4)c3N3CCC(N)CC3)nc2c1 [Compound 1-40, 4-(4-aminopiperidin-1-yl)-5-(3-fluoro-5-methylphenyl)-3-{5-[(methoxyimino)methyl]-1H-1,3-benzodiazol-2-yl}pyridin-2-amine]",< 10
3,"CON=Cc1cccc2[nH]c(-c3c(N)ncc(-c4cc(C)cc(F)c4)c3N3CCC(N)CC3)nc12 [Compound 1-44, 4-(4-aminopiperidin-1-yl)-5-(3-fluoro-5-methylphenyl)-3-{4-[(methoxyimino)methyl]-1H-1,3-benzodiazol-2-yl}pyridin-2-amine]",< 10
4,"COC(=O)Nc1ccc2[nH]c(-c3c(N)ncc(-c4cc(C)cc(F)c4)c3N3CCC(N)CC3)nc2c1 [Compound 1-45, methyl N-{2-[2-amino-4-(4-aminopiperidin-1-yl)-5-(3-fluoro-5-methylphenyl)pyridin-3-yl]-1H-1,3-benzodiazol-5-yl}carbamate]",< 10
5,"CONC(=O)Nc1ccc2[nH]c(-c3c(N)ncc(-c4cc(C)cc(F)c4)c3N3CCC(N)CC3)nc2c1 [Compound 1-46, 1-{2-[2-amino-4-(4-aminopiperidin-1-yl)-5-(3-fluoro-5-methylphenyl)pyridin-3-yl]-1H-1,3-benzodiazol-5-yl}-3-methoxyurea]",< 10
6,"Cc1cc(F)cc(-c2cnc(N)c(-c3nc4cnccc4[nH]3)c2N2CCC(N)CC2)c1 [Compound 1-51, 4-(4-aminopiperidin-1-yl)-5-(3-fluoro-5-methylphenyl)-3-{1H-imidazo[4,5-c]pyridin-2-yl}pyridin-2-amine]",< 10
7,"Cc1cc(F)cc(-c2cnc(N)c(-c3nc4ncccc4[nH]3)c2N2CCC(N)CC2)c1 [Compound 1-52, 4-(4-aminopiperidin-1-yl)-5-(3-fluoro-5-methylphenyl)-3-{1H-imidazo[4,5-b]pyridin-2-yl}pyridin-2-amine]",< 10
8,"Cc1cc(F)cc(-c2cnc(N)c(-c3nc4cc(S(C)(=O)=O)ccc4[nH]3)c2N2CCC(N)CC2)c1 [Compound 1-53, 4-(4-aminopiperidin-1-yl)-5-(3-fluoro-5-methylphenyl)-3-(5-methanesulfonyl-1H-1,3-benzodiazol-2-yl)pyridin-2-amine]",< 10
9,"Cc1cc(F)cc(-c2cnc(N)c(-c3nc4c(F)cc(OCC#N)cc4[nH]3)c2N2CCC(N)CC2)c1 [Compound 1-60, 2-({2-[2-amino-4-(4-aminopiperidin-1-yl)-5-(3-fluoro-5-methylphenyl)pyridin-3-yl]-4-fluoro-1H-1,3-benzodiazol-6-yl}oxy)acetonitrile]",< 10
10,"CON=Cc1cc(F)c2[nH]c(-c3c(N)ncc(-c4cc(C)cc(F)c4)c3N3CCC(N)CC3)nc2c1 [Compound 1-61, 4-(4-aminopiperidin-1-yl)-5-(3-fluoro-5-methylphenyl)-3-{7-fluoro-5-[(methoxyimino)methyl]-1H-1,3-benzodiazol-2-yl}pyridin-2-amine]",< 10
11,"C#Cc1ccc2[nH]c(-c3c(N)ncc(-c4cc(C)cc(F)c4)c3N3CCC(N)CC3)nc2c1 [Compound 1-65, 4-(4-aminopiperidin-1-yl)-3-(5-ethynyl-1H-1,3-benzodiazol-2-yl)-5-(3-fluoro-5-methylphenyl)pyridin-2-amine]",< 10
12,"C#Cc1cc(F)c2[nH]c(-c3c(N)ncc(-c4cc(C)cc(F)c4)c3N3CCC(N)CC3)nc2c1 [Compound 1-66, 4-(4-aminopiperidin-1-yl)-3-(5-ethynyl-7-fluoro-1H-1,3-benzodiazol-2-yl)-5-(3-fluoro-5-methylphenyl)pyridin-2-amine]",< 10
13,"COc1cc(F)cc(-c2cnc(N)c(-c3nc4cc(F)cc(F)c4[nH]3)c2N2CCC(N)CC2)c1 [Compound 1-67, 4-(4-aminopiperidin-1-yl)-3-(5,7-difluoro-1H-1,3-benzodiazol-2-yl)-5-(3-fluoro-5-methoxyphenyl)pyridin-2-amine]",< 10
14,"Cc1cc(F)cc(-c2cnc(N)c(-c3nc4cc(C#N)cc(F)c4[nH]3)c2N2CCC(N)CC2)c1 [Compound 1-69, 2-[2-amino-4-(4-aminopiperidin-1-yl)-5-(3-fluoro-5-methylphenyl)pyridin-3-yl]-7-fluoro-1H-1,3-benzodiazole-5-carbonitrile]",< 10
15,"CNc1ncc(-c2cc(C)cc(F)c2)c(N2CCC(N)CC2)c1-c1nc2ccc(C#N)cc2[nH]1 [Compound 1-70, 2-[4-(4-aminopiperidin-1-yl)-5-(3-fluoro-5-methylphenyl)-2-(methylamino)pyridin-3-yl]-1H-1,3-benzodiazole-6-carbonitrile]",< 10
16,"CNc1ncc(-c2cc(C)cc(F)c2)c(N2CCC(N)CC2)c1-c1nc2cccc(Cl)c2[nH]1 [Compound 1-72, 4-(4-aminopiperidin-1-yl)-3-(7-chloro-1H-1,3-benzodiazol-2-yl)-5-(3-fluoro-5-methylphenyl)-N-methylpyridin-2-amine]",< 10

# Continued, values first:
row,EC50 [nM],Structure (SMILES)
1,< 10,"Cc1cc(F)cc(-c2cnc(N)c(-c3nc4cccc(Cl)c4[nH]3)c2N2CCC(N)CC2)c1 [Compound 1-73, 4-(4-aminopiperidin-1-yl)-3-(7-chloro-1H-1,3-benzodiazol-2-yl)-5-(3-fluoro-5-methylphenyl)pyridin-2-amine]"
2,< 10,"CON=Cc1cc(OC)c2[nH]c(-c3c(N)ncc(-c4cc(C)cc(F)c4)c3N3CCC(N)CC3)nc2c1 [Compound 1-76, 4-(4-aminopiperidin-1-yl)-5-(3-fluoro-5-methylphenyl)-3-{7-methoxy-5-[(methoxyimino)methyl]-1H-1,3-benzodiazol-2-yl}pyridin-2-amine]"
3,< 10,"Nc1ncc(-c2cc(F)cc(Cl)c2)c(N2CCC(N)CC2)c1-c1nc2cc(F)cc(F)c2[nH]1 [Compound 1-77, 4-(4-aminopiperidin-1-yl)-5-(3-chloro-5-fluorophenyl)-3-(5,7-difluoro-1H-1,3-benzodiazol-2-yl)pyridin-2-amine]"
4,< 10,"Cc1cc(C)cc(-c2cnc(N)c(-c3nc4cc(F)cc(F)c4[nH]3)c2N2CCC(N)CC2)c1 [Compound 1-78, 4-(4-aminopiperidin-1-yl)-3-(5,7-difluoro-1H-1,3-benzodiazol-2-yl)-5-(3,5-dimethylphenyl)pyridin-2-amine]"
5,< 10,"Cc1cc(Cl)cc(-c2cnc(N)c(-c3nc4cc(F)cc(F)c4[nH]3)c2N2CCC(N)CC2)c1 [Compound 1-79, 4-(4-aminopiperidin-1-yl)-5-(3-chloro-5-methylphenyl)-3-(5,7-difluoro-1H-1,3-benzodiazol-2-yl)pyridin-2-amine]"
6,< 10,"COc1cc(C)cc(-c2cnc(N)c(-c3nc4cc(F)cc(F)c4[nH]3)c2N2CCC(N)CC2)c1 [Compound 1-80, 4-(4-aminopiperidin-1-yl)-3-(5,7-difluoro-1H-1,3-benzodiazol-2-yl)-5-(3-methoxy-5-methylphenyl)pyridin-2-amine]"
7,< 10,"Nc1ncc(-c2cc(F)cc(F)c2)c(N2CCC(N)CC2)c1-c1nc2cc(Cl)ccc2[nH]1 [Compound 1-81, 4-(4-aminopiperidin-1-yl)-3-(5-chloro-1H-1,3-benzodiazol-2-yl)-5-(3,5-difluorophenyl)pyridin-2-amine]"
8,< 10,"Nc1ncc(-c2cc(F)cc(F)c2)c(N2CCC(N)CC2)c1-c1nc2cc(Cl)cc(F)c2[nH]1 [Compound 1-82, 4-(4-aminopiperidin-1-yl)-3-(5-chloro-7-fluoro-1H-1,3-benzodiazol-2-yl)-5-(3,5-difluorophenyl)pyridin-2-amine]"
9,< 10,"COc1cc(F)cc2[nH]c(-c3c(N)ncc(-c4cc(C)cc(C)c4)c3N3CCC(N)CC3)nc12 [Compound 1-83, 4-(4-aminopiperidin-1-yl)-5-(3,5-dimethylphenyl)-3-(6-fluoro-4-methoxy-1H-1,3-benzodiazol-2-yl)pyridin-2-amine]"
10,< 10,COc1cc(F)c2[nH]c(-c3c(N)ncc(-c4cc(C)cc(C)c4)c3N3CCC(N)CC3)nc2c1 [Compound 1-84]
11,< 10,"N#Cc1cc(F)c2[nH]c(-c3c(N)ncc(-c4cc(F)cc(Cl)c4)c3N3CCC(N)CC3)nc2c1 [Compound 1-85, 2-[2-amino-4-(4-aminopiperidin-1-yl)-5-(3-chloro-5-fluorophenyl)pyridin-3-yl]-7-fluoro-1H-1,3-benzodiazole-5-carbonitrile]"
12,< 10,"Nc1ncc(-c2cc(F)cc(F)c2)c(N2CCC(N)CC2)c1-c1nc2cc(OC(F)(F)F)ccc2[nH]1 [Compound 1-86, 4-(4-aminopiperidin-1-yl)-5-(3,5-difluorophenyl)-3-[5-(trifluoromethoxy)-1H-1,3-benzodiazol-2-yl]pyridin-2-amine]"
